Laboratory results as given in patent EP0637448A1, “Combinations of glycinamide or N-acetylglycinamide with analgesic compounds” (ISCOFAR SAS DI PAOLO E. GHIRARDI, priority 1993, dated 1995).
Like-named read-outs stand apart in the source and are kept apart here.

Assays:
[1] = test system: EDEMA FROM CARRAGEENIN; test: carrageenin edema test; assay type: in vivo, mouse; conditions: for ED50: NSAID alone, per os 60 minutes before carrageenin, edema volume after 3 hours, read-out: ED₅₀ ± S.D. (dose reducing edema by 50%)
[2] = test system: mouse; test: acute oral toxicity (LD50); assay type: in vivo; conditions: orally
[3] = test system: phenylquinone induced writhing; test: writhing test (phenylquinone-induced abdominal contractions); assay type: in vivo, mouse; conditions: for time of maximum effect after administration: ED50 dose given orally, effect as a function of time; for ED50: Mus musculus, read-out: ED₅₀ ± D.5 (anti-writhing action)
Experimental: In order to experimentally test the above analgesic effect, which involves the µ and K type opiate receptors, the writhing test (literally: "induced abdominal contracture test") with […] of phenylquinone or paraphenylbenzoquinone (0.02% in 5% ethanol), has been choosed. Since phenylquinone is a photosensitive, said solution was kept dark bottle at 37 °C with continuous stirring. Groups of animals were treated orally with different doses of glycinamide at various time intervals before phenylquinone being administered by intraperitoneal way. For each experimental point 3 groups of 10 animals each were tested. After the phenylquinone administration, the animals were placed in glass cylinders and the abdominal contractions were recorded for 20 minutes starting form the fifth minute following the intraperitoneal administration of phenylquinone. As an average, about 50±15 abdominal contractions were recorded during the surveying time. The choice of phenylquinone as the writhing inductor is justified by the greater qualitative constance and higher number of contractions obtainable when compared with other inductors such as acetylcholine, acetic acid, ethacrynic acid, air, etc. [table]

[4] = acute oral toxicity (LD50); assay type: in vivo; conditions: in vivo, po; mouse, orally; read-out: LD₅₀
[5] = substance alone, orally, mouse, phenylquinone 2 mg/kg i.p.

CC(=O)Oc1ccccc1C(=O)O [Acetylsalicylic acid]
ED50 ([1]; mouse): 5.1 ± 0.8 mg/kg

NCC(N)=O [Glycinamide]
LD₅₀ [2]: higher than 2 g/Kg | enhancement of the effect of sodium diclofenac ([1]; 50 mg/kg of glycinamide, based on the carrageenin edema test): at least 2.8 times | anti-edema effect ([1]; glycinamide alone, 50 mg/kg orally 50 minutes before carrageenin, mouse): does not develop an anti-edema effect | enhancement of the antiphlogistic and visceral peripheral analgesic effect of sodium diclofenac ([3]; 25 mg/kg of glycinamide, based on writhing test): at least 2.5 times | time of maximum effect after administration ([3]; mouse): about 13 minutes | ED50 [3, 5]: ~82.9 mg/kg | reduction (anti-writhing action, peak) ([3]; orally administered dose of 200 mg/kg, mouse): 81.3%

CC(C)Cc1ccc(C(C)C(=O)O)cc1 (stereo not drawn) [Ibuprofen]
ED50 ([1]; mouse): 20 ± 2.4 mg/kg

COc1ccc2c(c1)c(CC(=O)O)c(C)n2C(=O)c1ccc(Cl)cc1 [Indomethacin]
ED50 ([1]; mouse): 84 ± 12 mg/kg

CC(=O)NCC(N)=O [N-acetylglycinamide]
LD50 [4]: > 2000 mg/kg | peripheral analgesic activity compared with glycinamide ([3]; mouse, in vivo): shared both qualitatively and quantitatively

O=C(O)Cc1ccccc1Nc1c(Cl)cccc1Cl [Sodium diclofenac]
ED50 ([1]; mouse): 10 ± 3.6 mg/kg | time of maximum effect after administration ([3]; mouse): 45 min | ED50 ([3]; + Glycinamide HCl 15 mg/kg orally 13 minutes before testing, mouse): 1.86 ± 1.15 mg/kg | ED50 ([3]; + Glycinamide HCl 25 mg/kg orally 13 minutes before testing, mouse): 1.12 ± 1.2 mg/kg | ED50 ([3]; + Glycinamide HCl 50 mg/kg orally 13 minutes before testing, mouse): 1.05 ± 1.31 mg/kg | ED50 ([3]; + Glycinamide HCl 75 mg/kg orally 13 minutes before testing, mouse): 1.02 ± 1.26 mg/kg | ED50 ([3]; + Glycinamide HCl 100 mg/kg orally 13 minutes before testing, mouse): 1.28 ± 1.16 mg/kg | ED50 [3, 5]: 2.93 ± 1.43 mg/kg

NCC(=O)O [glycine]
enhancement of the action of peripheral analgesic drugs ([3]; test not given): does not produce
